Measurements as given in the supplement of paper PMC10307832.

Tests used:
Experiment in all cases: relative viability (nuclei count vs DMSO), 5 days (fraction); higher = more cells survive
MK-8033 + Pemetrexed = compound: Cn1cc(-c2cnc3ccc4ccc(CS(=O)(=O)NCc5ccccn5)cc4c(=O)c3c2)cn1 [MK-8033] + Nc1nc2[nH]cc(CCc3ccc(C(=O)N[C@@H](CCC(=O)O)C(=O)O)cc3)c2c(=O)[nH]1 [Pemetrexed] (partner 0.2 µM)
Procedure, shortened: (§1)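 Each reported value is a median over duplicate plates. It expresses relative viability: treated-well nuclei count divided by vehicle-well nuclei count. Lung cancer cell lines in 1536-well plates were dosed by pin tool a day after seeding, alone with one drug or with a fixed anchor-drug dose plus five library-drug doses (not always all listed) in √10 steps, and nuclei were counted after 5 days.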

MK-8033 + OSI-027 = compound: Cn1cc(-c2cnc3ccc4ccc(CS(=O)(=O)NCc5ccccn5)cc4c(=O)c3c2)cn1 [MK-8033] + COc1cccc2cc(-c3nc([C@H]4CC[C@H](C(=O)O)CC4)n4ncnc(N)c34)[nH]c12 [OSI-027] (partner 0.5 µM)
Procedure, shortened: as §1

MK-8033 + AZD7762 = compound: Cn1cc(-c2cnc3ccc4ccc(CS(=O)(=O)NCc5ccccn5)cc4c(=O)c3c2)cn1 [MK-8033] + NC(=O)Nc1cc(-c2cccc(F)c2)sc1C(=O)N[C@H]1CCCNC1 [AZD7762] (partner 0.2 µM)
Procedure, shortened: as §1

Irinotecan + Linsitinib = compound: CCc1c2c(nc3ccc(OC(=O)N4CCC(N5CCCCC5)CC4)cc13)-c1cc3c(c(=O)n1C2)COC(=O)[C@]3(O)CC [Irinotecan] + C[C@]1(O)C[C@@H](c2nc(-c3ccc4ccc(-c5ccccc5)nc4c3)c3c(N)nccn32)C1 [Linsitinib] (partner 1 µM)
Procedure, shortened: as §1

| Cell Line | relative viability (MK-8033 + Pemetrexed; first compound 0.02 µM) | relative viability (MK-8033 + Pemetrexed; first compound 0.06325 µM) | relative viability (MK-8033 + Pemetrexed; first compound 0.2 µM) | relative viability (MK-8033 + Pemetrexed; first compound 0.6325 µM) | relative viability (MK-8033 + Pemetrexed; first compound 2 µM) | relative viability (MK-8033 + OSI-027; first compound 0.02 µM) | relative viability (MK-8033 + OSI-027; first compound 0.06325 µM) | relative viability (MK-8033 + OSI-027; first compound 0.2 µM) | relative viability (MK-8033 + OSI-027; first compound 0.6325 µM) | relative viability (MK-8033 + OSI-027; first compound 2 µM) | relative viability (MK-8033 + AZD7762; first compound 0.02 µM) | relative viability (MK-8033 + AZD7762; first compound 0.06325 µM) | relative viability (MK-8033 + AZD7762; first compound 0.2 µM) | relative viability (MK-8033 + AZD7762; first compound 0.6325 µM) | relative viability (MK-8033 + AZD7762; first compound 2 µM) | relative viability (Irinotecan + Linsitinib; first compound 0.6325 µM) | relative viability (Irinotecan + Linsitinib; first compound 2 µM) | relative viability (Irinotecan + Linsitinib; first compound 6.325 µM) | relative viability (Irinotecan + Linsitinib; first compound 20 µM) |
| --- | --- | --- | --- | --- | --- | --- | --- | --- | --- | --- | --- | --- | --- | --- | --- | --- | --- | --- | --- |
| HCC-366 | 0.151 | 0.222 | 0.141 | 0.196 | 0.35 | 1.1 | 0.85 | 0.838 | 0.945 | 0.791 | 0.367 | 0.231 | 0.228 | 0.291 | 0.256 | 0.443 | 0.152 | 0.0502 | 0.0674 |
| CAL-12T | 1.26 | 1.18 | 1.12 | 1.35 | 1.18 | 0.551 | 0.655 | 0.519 | 0.695 | 0.536 | 0.594 | 0.66 | 0.59 | 0.573 | 0.567 | 0.589 | 0.77 | 0.366 | 0.264 |
